Experimental data taken from patent US7601850B2, “Phenyl-thiophene type vitamin D receptor modulators” (Eli Lilly and Company, priority 2002, dated 2009).
Where two headings read alike, the source gives them in different places.

Columns and labels:
KERtr cells = assay: Keratinocyte proliferation assay (BrdU incorporation); format: cell-based; conditions: Homo sapiens, Keratinocyte, 72 h, KERtr human skin keratinocytes, 72 hr treatment, read-out: Kera. Prolif. IC50
Procedure: 6. The keratinocyte proliferation assay is described in the “Assay” section of the Description, infra.
5. The Keratinocyte Proliferation Assay
This Assay is indicative for the treatment of psoriasis.
(5) The Keratinocyte Proliferation Assay:
KERtr cells (Human skin keratinocyte transformed with a retrovirus vector, obtained from ATCC) were plated in 96-well flat-bottomed plates (3000 cells/well) in 100 µl keratinocyte serum free medium supplemented with bovine pituitary extract in the absence of EGF (Life Technologies, Rockville, Md.) and incubated at 37° C. for two days. The cells were treated with various concentrations of VDR ligands (ten-fold serial dilution from 10,000 nM to 0.1 nM in triplicate), dissolved in 100 µl keratinocyte serum free medium supplemented with bovine pituitary extract in the absence of EGF and incubated at 37° C. for 72 hr. […] Potency values (IC50) values were determined as the concentration (nM) of compound that elicited a half-maximal response.

rat osteocalcin promoter = assay: OCN (osteocalcin) promoter assay in RG-15 (ROS 17/2.8) cells; format: cell-based
In short: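 Rat osteoblast-like RG-15 (ROS 17/2.8) cells stably carry the rat osteocalcin promoter fused to luciferase. They were treated with compounds for 48 h in medium with 2% FBS and 0.01% DMSO. EC50 was derived from luciferase activity in cell lysates.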

[1] = Mouse hypercalcemia assay (six day, serum ionized calcium); format: in vivo
Procedure: 5. The Mouse Hypercalcemia test is described in the “Assay” section of the Description, infra.
4. The Mouse Hypercalcemia Assay
The Mouse Hypercalcemia Assay is a six day hypercalcemia test for toxicity and selectivity. Acceptable test results are levels greater than 300 μg/kg/day. Preferred assay results are levels greater than 1000 μg/kg/day.
(4) Materials and Method for The Mouse Hypercalcemia Assay:
Weanling, virus-antibody-free, five to six weeks old female DBF mice (Harlan, Indianapolis, Ind.) are used for all the studies. Animals are allowed to acclimate to local vivarium conditions for 2 days. […] The animals then are divided into groups with 4-5 mice per group. Different doses of test compounds prepared in 10% Ethanol and 90% sesame oil are administered to mice orally via gavage for 6 days. 1α-25(OH)2D3 0.5 μg/kg/d was also given to one group of mice as the positive control. Serum ionized calcium is evaluated at 6 hours after the last dosing under isoflurane anesthesia by Ciba-Corning Ca++/PH Analyzer, (Model 634, Chiron Diagnostics Corp., East Walpole, Mass.). Raw data of group differences is assessed by analysis of variance (ANOVA) using Fisher's protected least significant difference (PLSD) where the significance level was P<0.05.

| EC50 (rat osteocalcin promoter; Rattus norvegicus) [nM] | SMILES | IC50 (KERtr cells) [nM] | other results |
| --- | --- | --- | --- |
|  | CCC(CC)(c1ccc(OCC(O)C(C)(C)C)c(C)c1)c1cc(C)c(CS(C)(=O)=O)s1 (single isomer, unassigned) [Ex. 11B] | 216 |  |
|  | CCC(CC)(c1ccc(OCS(C)(=O)=O)c(C)c1)c1cc(C)c(CCC(O)C(C)(C)C)s1 (single isomer, unassigned) [Ex. 15A] | 76 |  |
|  | CCC(CC)(c1ccc(OCC(=O)O)c(C)c1)c1cc(C)c(CCC(O)C(C)(C)C)s1 (single isomer, unassigned) [Ex. 33A, 3′-[5-(3-hydroxy-4,4-dimethylpentyl)-4-methylthiophen-2-yl]-3′-[4-(carboxylmethoxy)-3-methylphenyl]pentane] |  | EC50 (rat osteocalcin promoter): 43.5 nM; Mouse Hypercal [1]: >9000 µg/kg/day |
|  | CCC(CC)(c1ccc(OCC(=O)Nc2nnn[nH]2)c(C)c1)c1cc(C)c(CCC(O)C(C)(C)C)s1 (single isomer, unassigned) [Ex. 34, 3′-[5-(3-hydroxy-4,4-dimethylpentyl)-4-methylthiophen-2-yl]-3-[4-(tetrazol-5-yl-aminocarbonylmethoxy)-3-methylphenyl]pentane] |  | EC50 (rat osteocalcin promoter): 96.8 nM; Mouse Hypercal [1]: 3000 µg/kg/day |
|  | CCC(CC)(c1ccc(OCC(O)C(C)(C)C)c(C)c1)c1cc(C)c(C(=O)Nc2nnn[nH]2)s1 (single isomer, unassigned) [Ex. 36, 3′-[4-(2-hydroxy-3,3-dimethylbutoxy)-3-methylphenyl]-3′-[5-(tetrazol-5-yl-aminocarbonyl)-4-methylthiophen-2-yl]pentane] |  | EC50 (rat osteocalcin promoter): 67.9 nM; Mouse Hypercal [1]: 2000 µg/kg/day |
|  | CCC(CC)(c1ccc(OCC(O)C(C)(C)C)c(C)c1)c1cc(C)c(C(=O)NCCS(C)(=O)=O)s1 (single isomer, unassigned) [Ex. 39, 5-[1-ethyl-1-[4-(2-hydroxy-3,3-dimethyl-butoxy)-3-methylphenyl]propyl]-3-methylthiophene-2-carboxylic acid (2-methylsulfonyl-ethyl) amide] | 367 | EC50 (rat osteocalcin promoter): 300 nM |
| 19.7 | CCC(CC)(c1ccc(OCC(O)C(C)(C)C)c(C)c1)c1cc(C)c(C(=O)N(C)OC)s1 (single isomer, unassigned) [Ex. 43, 5-{1-Ethyl-1-[4-(2-hydroxy-3,3-dimethyl-butyoxy)-3-methyl-phenyl]-propyl}-3methyl-thiophene-2-carboxylic acid methoxy-methyl-amide] |  | Mouse Hypercal [1]: 1000 µg/kg/day |
|  | CCC(CC)(c1ccc(OCC(O)C(C)(C)C)c(C)c1)c1cc(C)c(C(=O)N(C)OC)s1 (single isomer, unassigned) [Ex. 44, 5-{1-Ethyl-1-[4-(2-hydroxy-3,3-dimethyl-butyoxy)-3-methyl-phenyl]-propyl}-3methyl-thiophene-2-carboxylic acid methoxy-methyl-amide] |  | EC50 (rat osteocalcin promoter): 30.4 nM; Mouse Hypercal [1]: 1000 µg/kg/day |
|  | CCC(CC)(c1ccc(OCC(O)C(C)(C)C)c(C)c1)c1cc(C)c(C(=O)NCC(=O)O)s1 (single isomer, unassigned) [Ex. 48] | 71.5 |  |
|  | CCC(CC)(c1ccc(OCC(O)C(C)(C)C)c(C)c1)c1cc(C)c(C(=O)N[C@H](C)C(=O)OC)s1 (single isomer, unassigned) [Ex. 66, D-2-[(5-{1-Ethyl-1-[4-(2-hydroxy-3,3-dimethyl-butoxy)-3-methyl-phenyl]-propyl}-3-methyl-thiophene-2-carbonyl)-amino]-propionic acid methyl ester] | 277 | EC50 (rat osteocalcin promoter): 28.4 nM |
|  | CCCc1cc(C(CC)(CC)c2ccc(C(=O)O)s2)ccc1OCC(O)C(C)(C)C (single isomer, unassigned) [Ex. 94, 3′-[4-(2-hydroxy-3,3-dimethylbutoxy)-3-n-propylphenyl]-3′-[5-carboxy-thiophen-2-yl]pentane] |  | EC50 (rat osteocalcin promoter): 4.05 nM; Mouse Hypercal [1]: 1000 µg/kg/day |
|  | CCC(CC)(c1ccc(OCC(O)CO)c(C)c1)c1ccc(OCC(O)C(C)(C)C)c(C)c1 (centres unmarked) [BB, 3-(4-{1-Ethyl-1-[4-(2-hydroxy-3,3-dimethyl-butoxy)-3-methyl-phenyl]-10 propyl}-2-methyl-phenoxy)-propane-1,2-diol, reference compound] |  | Mouse Hypercal μg/Kg/d [1]: >=20 μg/Kg/d |
|  | CCC(CC)(c1ccc(OCC(=O)C(C)(C)C)c(C)c1)c1ccc(OC[C@H](O)C(C)(C)C)c(C)c1 [EE, reference compound] |  | Mouse Hypercal [1]: 1000 µg/kg/day |
| 147 | CCC(CC)(c1ccc(OCC(O)C(C)(C)C)c(C)c1)c1cc(C)c(C(=O)N(C)C)s1 (centres unmarked) [Ex. 4] | 122 |  |
|  | CCC(CC)(c1ccc(OCC(O)C(C)(C)C)c(C)c1)c1cc(C)c(C(=O)OC)s1 (centres unmarked) [Ex. 6A] | 439 |  |
| 51.3 | CCC(CC)(c1ccc(OCC(O)C(C)(C)C)c(C)c1)c1cc(C)c(CS(C)(=O)=O)s1 (centres unmarked) [Ex. 10] | 25 |  |
| 31 | CCC(CC)(c1ccc(OC[S+](C)[O-])c(C)c1)c1cc(C)c(CC[C@@H](O)C(C)(C)C)s1 (some centres unmarked) [Ex. 16] | 257 |  |
| 11.2 | CCC(CC)(c1ccc(OS(C)(=O)=O)c(C)c1)c1cc(C)c(CC[C@@H](O)C(C)(C)C)s1 [Ex. 18] | 24.5 |  |
| 8.65 | CCC(CC)(c1ccc(CCC(=O)O)c(C)c1)c1cc(C)c(CCC(O)C(C)(C)C)s1 (centres unmarked) [Ex. 29] | 4.6 |  |
|  | CCC(CC)(c1ccc(OCC(O)C(C)(C)C)c(C)c1)c1cc(C)c(S(=O)(=O)NCCC(=O)O)s1 (centres unmarked) [Ex. 142] | 300 |  |
| 222 | CCC(CC)(c1ccc(OCC(=O)C(C)(C)C)c(C)c1)c1cc(C)c(S(=O)(=O)N(C)CCC(=O)O)s1 [Ex. 145] | 702 |  |
| 18.4 | CCc1cc(C(CC)(CC)c2ccc(S(=O)(=O)NCC(=O)O)s2)ccc1OCC(O)C(C)(C)C (centres unmarked) [Ex. 155] | 788 |  |
|  | CCC(CC)(c1ccc(OCC(O)C(C)(C)C)c(C)c1)c1cc(C)c(-c2n[nH]c(=S)o2)s1 (centres unmarked) [Ex. 173] | 478 |  |
| 46 | CCC(CC)(c1ccc(CCC(O)C(C)(C)C)c(C)c1)c1cc(C)c(C(=O)NCC(=O)O)s1 (centres unmarked) [Ex. 177, [(5-{1-Ethyl-1-[4-(3-hydroxy-4,4-dimethyl-pentyl)-3-methyl-phenyl]-propyl}-3-methyl-thiophene-2-carbonyl)-amino]-acetic acid] | 81.3 |  |
| 27.9 | CCC(CC)(c1ccc(CCC(O)C(C)(C)C)c(C)c1)c1cc(C)c(S(=O)(=O)NCC(=O)O)s1 (centres unmarked) [Ex. 179, (5-{1-Ethyl-1-[4-(3-hydroxy-4,4-dimethyl-pentyl)-3-methyl-phenyl]-propyl}-3-methyl-thiophene-2-sulfonylamino)-acetic acid] | 221 |  |

| SMILES | EC50 (rat osteocalcin promoter; Rattus norvegicus) [nM] | IC50 (KERtr cells) [nM] | other results |
| --- | --- | --- | --- |
| CCC(CC)(c1ccc(OCC(O)C(C)(C)C)c(C)c1)c1ccc(C(=O)O)s1 (single isomer, unassigned) [Ex. 89, 3′-[4-(2-hydroxy-3,3-dimethylbutoxy)-3-methylphenyl]-3′-[5-carboxy-thiophen-2-yl]pentane] | 314 | 105 |  |
| CCC(CC)(c1ccc(OCC(O)C(C)(C)C)c(C)c1)c1cc(C)c(COCC(=O)O)s1 (centres unmarked) [Ex. 124, 2-(5-{1-ethyl-1-[4-(2-hydroxy-3,3-dimethyl-butoxy)-3-methyl-phenyl]-propyl}-3-methyl-thiophen-2-yl-methoxy)acetic acid] | 101 | 216 |  |
| CCC(CC)(c1ccc(OCC(O)C(C)(C)C)c(C)c1)c1cc(C)c(S(=O)(=O)NC(C)=O)s1 (centres unmarked) [Ex. 158, 5-{1-Ethyl-1-[4-(2-hydroxy-3,3-dimethyl-butoxy)-3-methyl-phenyl]-propyl}-3-methyl-thiophene-2-sulfonic acid acetyl-amide] | 85 | 500 |  |
| CCC(=O)NS(=O)(=O)c1sc(C(CC)(CC)c2ccc(OCC(O)C(C)(C)C)c(C)c2)cc1C (centres unmarked) [Ex. 159, 5-{1-Ethyl-1-[4-(2-hydroxy-3,3-dimethyl-butoxy)-3-methyl-phenyl]-propyl}-3-methyl-thiophene-2-sulfonic acid propionyl-amide] | 89.7 | 234 |  |
| CCC(CC)(c1ccc(OCC(=O)C(C)(C)C)c(C)c1)c1cc(C)c(S(=O)(=O)NC(C)=O)s1 [Ex. 160, 5-{1-[4-(3,3-Dimethyl-2-oxo-butoxy)-3-methyl-phenyl]-1-ethyl-propyl}-3-methyl-thiophene-2-sulfonic acid acetyl-amide] | 40.3 | 1100 |  |
| CCOC(=O)CSCc1sc(C(CC)(CC)c2ccc(OCC(=O)C(C)(C)C)c(C)c2)cc1C [Ex. 183, (5-{1-[4-(3,3-Dimethyl-2-oxo-butoxy)-3-methyl-phenyl]-1-ethyl-propyl}-3-methyl-thiophen-2-ylmethylsulfanyl)-acetic acid ethyl ester] | 38.6 |  |  |
